Key:
mushroom tyrosinase = assay: Inhibition of tyrosinase activity; assay type: biochemical; conditions: L-tyrosine, 37° C., 20 minutes, absorbance 490 nm
Experimental: The effect of New Materials 31 and 32 on inhibiting tyrosinase activity was evaluated.
Specifically, tyrosinase and tyrosine derived from mushroom were obtained from Sigma Chemical. Together with 150 μl of 0.1 M phosphate buffer (pH 6.5), 8 μl of mushroom tyrosinase (2,100 unit/ml) and 0.05 M concentration of L-tyrosine, arbutin and New Materials 31 and 32 were treated at the concentrations of following Table 3, respectively. The tyrosinase activity was evaluated by performing the enzyme reaction at 37° C. for 20 minutes and then measuring absorbance at 490 nm using a microplate reader (Bio-Rad 3550, Richmond, Calif., U.S.A.).

Mel-Ab cell line = assay: Inhibition of melanogenesis in Mel-Ab cells (method of Dooley); assay type: cell-based, C57BL/6; conditions: melanin by absorbance at 400 nm after 5 days
Experimental: The effects of New Materials 31 and 32 on inhibiting melanogenesis were compared with Kojic acids which have been known to have an excellent skin whitening effect, and measured.
Specifically, the degree of melanogenesis in cells was measured by a method of Dooley. As the cell line, Mel-Ab cell line (Falcon, U.S.A.) derived from a skin pigment of C57BL/6 was used. Culturing was made under the condition of 37° C., 5% CO2 of a DMEM medium containing 10% placenta serum, 100 nM 12-O-tetradecanoylphorbol-13-acetate, and 1 nM Cholera Toxin. The test materials were treated in the manner where the cultured Mel-Ab cell was isolated with 0.25% trypsin-EDTA, and inoculated again with the same number (1×10^5 cells/well) in the 24-well plate, and then the medium was replaced with a medium containing the test materials for two days from the second day. As the test materials, 5 ppm, 10 ppm, 25 ppm and 50 ppm of New Materials 31 and 32, 25 ppm, 50 ppm and 100 ppm of Kojic acids and DMSO (control) were used. After 5 days, the test materials were treated with 1N-NaOH to dissolve melanin contained in the cell, and the amount of melanin was measured by measuring absorbance at 400 nm. The concentration (IC50) of the material necessary for reducing melanogenesis of melanocyte by half was calculated, and the results are shown in following Table 4.

SMILES	IC50 inhibiting tyrosinase activity (mushroom tyrosinase)	IC50 inhibiting melanogenesis (Mel-Ab cell line)
OC[C@H]1O[C@@H](Oc2ccc(O)cc2)[C@H](O)[C@@H](O)[C@@H]1O [Arbutin, arbutin, reference compound]	149 ppm	
O=c1cc(CO)occ1O [Kojic acids, reference compound]		39.36 ppm

Source: patent US11306117B2, “Whitening composition containing novel quercetin-based compound” (AMOREPACIFIC CORPORATION, priority 2017, dated 2022)
